Reference: patent US4612330A, “Antiinflammatory method” (Eli Lilly and Company, priority 1985, dated 1986)

Tests used:
hind paws of rats = test: carrageenin-induced edema test; type: in vivo; settings: for anti-inflammatory activity (in words): carrageenin-induced edema, rats; for inhibition of paw swelling: 50 mg/kg, administered prior to carrageenin, vs contralateral (control) paws
Protocol: It has now been discovered that Punaglandin-1 and -2 are useful in the treatment of inflammation and arthritis in mammals. […] A. Winter, Proc. Soc. Exp. Biol. Med., 111, 544 (1962). In this method, inflammation is induced by injecting carrageenin into one of the hind paws of rats. Test compounds were administered prior to the carrageenin injection to determine the percent inhibition of the subsequent inflammation, in comparison with the animals' contralateral (control) paws.

[1] = test system: adjuvant-induced arthritis in rats, uninjected hind paw; test: Developing adjuvant-induced arthritis test in rats: uninjected hind paw volume; type: in vivo, male Lewis-Wistar rats; settings: 10 mg/kg I.P. × 29 daily doses; difference of areas under the curves of mean uninjected paw volumes, TB controls vs treated

SMILES	anti-inflammatory activity (in words) (hind paws of rats)	% Inhibition of Uninjected Paw Volume Inflammation, Days 16 through 30 [1] [%]	inhibition of paw swelling (hind paws of rats; intraperitoneal) [%]	inhibition of paw swelling (hind paws of rats; subcutaneous) [%]
CCCCC/C=C\CC1(O)C=C(Cl)C(=O)C1C(OC(C)=O)C(OC(C)=O)C(CCCC(=O)OC)OC(C)=O (centres unmarked) [Punaglandin-2, 5,6,7-tris(acetyloxy)-7-(4-chloro-2-hydroxy-2-[2-(Z)-octenyl]-5-oxo-3-cyclopenten-1-yl)heptanoic acid, methyl ester]	anti-inflammatory activity			
CC/C=C\C/C=C\CC1(O)C=C(Cl)C(=O)C1C(OC(C)=O)C(OC(C)=O)C(CCCC(=O)OC)OC(C)=O (centres unmarked) [Punaglandin-1, 5,6,7-tris(acetyloxy)-7-(4-chloro-2-hydroxy-2-[2(Z),5(Z)-octadienyl]-5-oxo-3-cyclopenten-1-yl)heptanoic acid, methyl ester]	anti-inflammatory activity	56.7	79.6	62.1
